{"source": "ChEMBL document CHEMBL1158669", "about": "“Cytotoxic scalarane sesterterpenes from a sponge, Hyrtios erecta” (J Nat Prod, 1998)", "key": {"P388 [1]": {"system": "P388", "experiment": "Antitumor activity against mouse P388 cells after 48 hrs by MTT assay", "format": "functional, cell-based", "conditions": "P388, 48 h"}, "[2]": {"experiment": "Antitumor activity against human MKN1 cells after 48 hrs by MTT assay", "format": "functional, cell-based", "conditions": "MKN-1, 48 h"}, "MKN-7": {"system": "MKN-7", "experiment": "Antitumor activity against human MKN7 cells after 48 hrs by MTT assay", "format": "functional, cell-based", "conditions": "MKN-7, 48 h"}, "MKN-74": {"system": "MKN-74", "experiment": "Antitumor activity against human MKN74 cells after 48 hrs by MTT assay", "format": "functional, cell-based", "conditions": "MKN-74, 48 h"}, "P388 [3]": {"system": "P388", "experiment": "Antitumor activity against mouse P388 cells implanted in CDF1 mouse assessed as decrease in weight change at 8.0 mg/kg, ip", "format": "functional", "set-up": "scale not given: the % may be the effect or the level left", "conditions": "route intraperitoneal"}, "P388 [4]": {"system": "P388", "experiment": "Antitumor activity against mouse P388 cells implanted in CDF1 mouse assessed as decrease in weight change at 4.0 mg/kg, ip", "format": "functional", "set-up": "scale not given: the % may be the effect or the level left", "conditions": "route intraperitoneal"}, "P388 [5]": {"system": "P388", "experiment": "Antitumor activity against mouse P388 cells implanted in CDF1 mouse assessed as decrease in weight change at 2.0 mg/kg, ip", "format": "functional", "set-up": "scale not given: the % may be the effect or the level left", "conditions": "route intraperitoneal"}, "P388 [6]": {"system": "P388", "experiment": "Antitumor activity against mouse P388 cells implanted in CDF1 mouse assessed as decrease in weight change at 1.0 mg/kg, ip", "format": "functional", "set-up": "scale not given: the % may be the effect or the level left", "conditions": "route intraperitoneal"}, "P388 [7]": {"system": "P388", "experiment": "Antitumor activity against mouse P388 cells implanted in CDF1 mouse assessed as decrease in weight change at 0.5 mg/kg, ip", "format": "functional", "set-up": "scale not given: the % may be the effect or the level left", "conditions": "route intraperitoneal"}, "P388 [8]": {"system": "P388", "experiment": "Antitumor activity against mouse P388 cells implanted in CDF1 mouse assessed as increase in life span at 8.0 mg/kg, ip", "format": "functional", "conditions": "route intraperitoneal"}, "P388 [9]": {"system": "P388", "experiment": "Antitumor activity against mouse P388 cells implanted in CDF1 mouse assessed as increase in life span at 4.0 mg/kg, ip", "format": "functional", "conditions": "route intraperitoneal"}, "P388 [10]": {"system": "P388", "experiment": "Antitumor activity against mouse P388 cells implanted in CDF1 mouse assessed as increase in life span at 2.0 mg/kg, ip", "format": "functional", "conditions": "route intraperitoneal"}, "P388 [11]": {"system": "P388", "experiment": "Antitumor activity against mouse P388 cells implanted in CDF1 mouse assessed as increase in life span at 1.0 mg/kg, ip", "format": "functional", "conditions": "route intraperitoneal"}, "P388 [12]": {"system": "P388", "experiment": "Antitumor activity against mouse P388 cells implanted in CDF1 mouse assessed as increase in life span at 0.5 mg/kg, ip", "format": "functional", "conditions": "route intraperitoneal"}}, "data": [{"molecule": "CC1(C)CCC[C@]2(C)[C@H]3C[C@@H](O)[C@]4(C)[C@@H]5C(=CC[C@H]4[C@]3(C)CC[C@@H]12)CO[C@H]5O", "values": [{"measurement": "IC50", "setting": "P388 [1]", "result": "> 1", "unit": "µg/mL"}]}, {"molecule": "C[C@H](C[C@@H](O)[C@](O)(CCl)[C@H]1CC[C@H]2[C@@H]3CC[C@H]4CC(=O)CC[C@]4(C)[C@H]3C[C@@H](O)[C@]12C)[C@H]1C[C@@H]1C", "note": "[ARAGUSTEROL C]", "values": [{"measurement": "IC50", "setting": "P388 [1]", "result": 0.041, "unit": "µg/mL"}]}, {"molecule": "CC(=O)O[C@@H]1C[C@@H]2[C@@]3(C)CCCC(C)(C)[C@@H]3CC[C@@]2(C)[C@@H]2CC=C3C(=O)O[C@@H](O)[C@@H]3[C@@]12C", "values": [{"measurement": "IC50", "setting": "P388 [1]", "result": "> 1", "unit": "µg/mL"}]}, {"molecule": "CC(=O)O[C@@H]1C[C@@H]2[C@@]3(C)CC[C@H](O)C(C)(C)[C@@H]3CC[C@@]2(C)[C@@H]2CC=C3CO[C@@H](O)[C@@H]3[C@@]12C", "values": [{"measurement": "IC50", "setting": "P388 [1]", "result": 0.505, "unit": "µg/mL"}]}, {"molecule": "CC1(C)C(=O)CC[C@]2(C)[C@H]3C[C@@H](O)[C@]4(C)[C@@H]5C(=CC[C@H]4[C@]3(C)CC[C@@H]12)CO[C@H]5O", "values": [{"measurement": "IC50", "setting": "P388 [1]", "result": 0.0145, "unit": "µg/mL"}, {"measurement": "IC50", "setting": "[2]", "result": 0.0577, "unit": "µg/mL"}, {"measurement": "IC50", "setting": "MKN-7", "result": 0.056, "unit": "µg/mL"}, {"measurement": "IC50", "setting": "MKN-74", "result": 0.0368, "unit": "µg/mL"}, {"measurement": "Activity", "setting": "P388 [3]", "result": 0.4, "unit": "%"}, {"measurement": "Activity", "setting": "P388 [4]", "result": 0.9, "unit": "%"}, {"measurement": "Activity", "setting": "P388 [5]", "result": 2.4, "unit": "%"}, {"measurement": "Activity", "setting": "P388 [6]", "result": 2, "unit": "%"}, {"measurement": "Activity", "setting": "P388 [7]", "result": 3, "unit": "%"}, {"measurement": "Activity", "setting": "P388 [8]", "result": 74.4, "unit": "%"}, {"measurement": "Activity", "setting": "P388 [9]", "result": 51.2, "unit": "%"}, {"measurement": "Activity", "setting": "P388 [10]", "result": 31.4, "unit": "%"}, {"measurement": "Activity", "setting": "P388 [11]", "result": 32.6, "unit": "%"}, {"measurement": "Activity", "setting": "P388 [12]", "result": 24.4, "unit": "%"}]}, {"molecule": "C[C@H](CC[C@](C)(O)[C@H]1CC[C@H]2[C@@H]3CC[C@H]4CC(=O)CC[C@]4(C)[C@H]3C[C@@H](O)[C@@]21C)[C@H]1C[C@@H]1C", "note": "[ARAGUSTEROL B]", "values": [{"measurement": "IC50", "setting": "P388 [1]", "result": "> 3.3", "unit": "µg/mL"}]}, {"molecule": "CC1(C)CCC[C@]2(C)[C@H]3C[C@@H](O)[C@]4(C)[C@H]5OC(=O)C=C5[C@@H](O)C[C@H]4[C@]3(C)CC[C@@H]12", "values": [{"measurement": "IC50", "setting": "P388 [1]", "result": "> 1", "unit": "µg/mL"}]}, {"molecule": "CC1(C)[C@@H](O)CC[C@]2(C)[C@H]3C[C@@H](O)[C@]4(C)[C@@H]5C(=CC[C@H]4[C@]3(C)CC[C@@H]12)CO[C@H]5O", "values": [{"measurement": "IC50", "setting": "P388 [1]", "result": 0.25, "unit": "µg/mL"}]}, {"molecule": "C[C@@H]1C[C@H]1[C@H](C)C[C@@H](O)[C@@]1([C@H]2CC[C@H]3[C@@H]4CC[C@H]5CC(=O)CC[C@]5(C)[C@H]4C[C@@H](O)[C@]23C)CO1", "note": "[ARAGUSTEROL A]", "values": [{"measurement": "IC50", "setting": "P388 [1]", "result": 0.022, "unit": "µg/mL"}]}]}
